How the values were obtained:
[1] = system: Amaranthus retroflexus; experiment: Herbicidal activity, spray above weed one week before planting (Example 5); assay type: in vivo; settings: sprayed above weed three weeks after seeding, 3 cm stem cutting planted one week after treatment, four weeks after treatment
[2] = system: sugar cane; experiment: Phytotoxicity on sugar cane, spray above weed one week before planting (Example 5)
Experimental: (§1) The “phytotoxicity” evaluated herein is the damage characteristic determined to be due to a treated compound, and is clearly discriminated from the damage characteristic caused by a harmful animal or plant disease.
(§2) A soil is packed into a plastic pot, and seeds of Amaranthus retroflexus are seeded thereon. Thereafter, the pot is placed in a greenhouse, and the weed is grown.
A 30 cm to 40 cm stem cutting of sugar cane is placed on a wet soil, and germination is stimulated. The stem cutting from which a bud has been grown to about 1 cm is selected, and the length of the stem cutting is adjusted to be 3 cm so that the stem cutting has one node.
(§3) The pot for a test is placed in a greenhouse.

[3] = system: Amaranthus retroflexus; experiment: Herbicidal activity, soil surface spray, insecticide-treated stem cutting (Example 6); assay type: in vivo; settings: 3 cm stem cutting treated with clothianidin, thiamethoxiam, imidacloprid, dinotefuran, nitenpyram, acetamiprid or thiacloprid, four weeks after treatment
Experimental: A 30 cm to 40 cm stem cutting of sugar cane is placed on a wet soil, and germination is stimulated. The stem cutting from which a bud has grown to about 1 cm is selected, and the length of the stem cutting is adjusted to be 3 cm so that the stem cutting has one node. Clothianidin, thiamethoxiam, imidacloprid, dinotefuran, nitenpyram, acetamiprid or thiacloprid is adhered to the stem cutting. A soil is packed into a plastic pot, and seeds of Amaranthus retroflexus are seeded thereon. The stem cutting of sugar cane treated with clothianidin, thiamethoxiam, imidacloprid, dinotefuran, nitenpyram, acetamiprid or thiacloprid is planted in the soil packed into the pot at a depth of 2 cm. […] Thereafter, the pot for a test is placed in a greenhouse.

[4] = system: sugar cane; experiment: Phytotoxicity on sugar cane, spray above weed before planting, insecticide-treated stem cutting (Example 7)
Experimental: as §1, §2
A 30 cm to 40 cm stem cutting of sugar cane is placed on a wet soil, and germination is stimulated. The stem cutting from which a bud has grown to about 1 cm is selected, and the length of the stem cutting is adjusted to be 3 cm so that the stem cutting has one node. Clothianidin, thiamethoxiam, imidacloprid, dinotefuran, nitenpyram, acetamiprid or thiacloprid is adhered to the stem cutting.
as §3

[5] = system: Amaranthus retroflexus; experiment: Herbicidal activity, soil surface spray, strobilurin-treated stem cutting (Example 8); assay type: in vivo; settings: 3 cm stem cutting treated with kresoxim-methyl, azoxystrobin or another listed strobilurin fungicide, four weeks after treatment
[6] = system: sugar cane; experiment: Phytotoxicity on sugar cane, soil surface spray, strobilurin-treated stem cutting (Example 8)
From the text: as §1
A 30 cm to 40 cm stem cutting of sugar cane is placed on a wet soil, and germination is stimulated. The stem cutting from which a bud has grown to about 1 cm is selected, and the length of the stem cutting is adjusted to be 3 cm so that the stem cutting has one node. Kresoxim-methyl, azoxystrobin, trifloxystrobin, fluoxastrobin, picoxystrobin, pyraclostrobin, dimoxystrobin, pyribencarb, metominostrobin, orysastrobin, enestrobin, pyraoxystrobin or pyrametostrobin is adhered to the stem cutting. A soil is packed into a plastic pot, and seeds of Amaranthus retroflexus are seeded thereon. The stem cutting of sugar cane treated with kresoxim-methyl, azoxystrobin, trifloxystrobin, fluoxastrobin, picoxystrobin, pyraclostrobin, dimoxystrobin, pyribencarb, metominostrobin, orysastrobin, enestrobin, pyraoxystrobin or pyrametostrobin is planted in the soil packed into the pot at a depth of 2 cm. […] Thereafter, the pot for a test is placed in a greenhouse.

[7] = system: Amaranthus retroflexus; experiment: Herbicidal activity, spray above weed before planting, strobilurin-treated stem cutting (Example 9); assay type: in vivo; settings: sprayed above weed, 3 cm stem cutting treated with kresoxim-methyl, azoxystrobin or another listed strobilurin fungicide planted one week after treatment, four weeks after treatment
[8] = system: sugar cane; experiment: Phytotoxicity on sugar cane, spray above weed before planting, strobilurin-treated stem cutting (Example 9)
Experimental: as §1, §2
A 30 cm to 40 cm stem cutting of sugar cane is placed on a wet soil, and germination is stimulated. The stem cutting from which a bud has grown to about 1 cm is selected, and the length of the stem cutting is adjusted to be 3 cm so that the stem cutting has one node. Kresoxim-methyl, azoxystrobin, trifloxystrobin, fluoxastrobin, picoxystrobin, pyraclostrobin, dimoxystrobin, pyribencarb, metominostrobin, orysastrobin, enestrobin, pyraoxystrobin or pyrametostrobin is adhered to the stem cutting.
as §3

[9] = system: Amaranthus retroflexus; experiment: Herbicidal activity, soil surface spray, azole-fungicide-treated stem cutting (Example 10); assay type: in vivo; settings: 3 cm stem cutting treated with azaconazole, bitertanol or another listed azole-type fungicide, four weeks after treatment
From the text: A 30 to 40 cm stem cutting of sugar cane is placed on a wet soil, and germination is stimulated. The stem cutting from which a bud has grown to about 1 cm is selected, and the length of the stem cutting is adjusted to be 3 cm so that the stem cutting has one node. Azaconazole, bitertanol, bromoconazole, cyproconazole, difenoconazole, diniconazole, epoxyconazole, fenbuconazole, fluquinconazole, flusilazole, flutriafol, hexaconazole, imibenconazole, ipconazole, metconazole, myclobutanil, penconazole, propiconazole, prothioconazole, simeconazole, tebuconazole, tetraconazole, triadimenol, triticonazole, fenarimol, nuarimol, pyrifenox, imazalil, oxpoconazole fumarate, pefurazoate, procloraz or triflumizole is adhered to the stem cutting. A soil is packed into a plastic pot, and seeds of Amaranthus retroflexus are seeded thereon. The stem cutting of sugar cane treated with azaconazole, bitertanol, bromoconazole, cyproconazole, difenoconazole, diniconazole, epoxyconazole, fenbuconazole, fluquinconazole, flusilazole, flutriafol, hexaconazole, imibenconazole, ipconazole, metconazole, myclobutanil, penconazole, propiconazole, prothioconazole, simeconazole, tebuconazole, tetraconazole, triadimenol, triticonazole, fenarimol, nuarimol, pyrifenox, imazalil, oxpoconazole fumarate, pefurazoate, procloraz or triflumizole is planted in the soil packed into the pot at a depth of 2 cm. […] Thereafter, the pot for a test is placed in a greenhouse.

[10] = system: Amaranthus retroflexus; experiment: Herbicidal activity, spray above weed before planting, azole-fungicide-treated stem cutting (Example 11); assay type: in vivo; settings: sprayed above weed, 3 cm stem cutting treated with azaconazole, bitertanol or another listed azole-type fungicide planted one week after treatment, four weeks after treatment
Experimental: A soil is packed into a plastic pat, and seeds of Amaranthus retroflexus are seeded thereon. Thereafter, the pot is placed in a greenhouse, and the weed is grown.

[11] = system: Amaranthus retroflexus; experiment: Herbicidal activity, soil surface spray, metalaxyl-treated stem cutting (Example 12); assay type: in vivo; settings: 3 cm stem cutting treated with metalaxyl or metalaxyl-M, four weeks after treatment
Experimental: A soil is packed into a plastic pot. Seeds of Amaranthus retroflexus are seeded thereon.

[12] = system: sugar cane; experiment: Phytotoxicity on sugar cane, soil surface spray, metalaxyl-treated stem cutting (Example 12)
From the text: as §1
A 30 cm to 40 cm stem cutting of sugar cane is placed on a wet soil, and germination is stimulated. The stem cutting from which a bud has grown to about 1 cm is selected, and the length of the stem cutting is adjusted to be 3 cm so that the stem cutting has one node. Metalaxyl or metalaxyl-M is adhered to the stem cutting. A soil is packed into a plastic pot. Seeds of Amaranthus retroflexus are seeded thereon. The stem cutting of sugar cane treated with metalaxyl or metalaxyl-M is planted in the soil packed into the pot at a depth of 2 cm. […] Thereafter, the pot for a test is placed in a greenhouse.

[13] = system: Amaranthus retroflexus; experiment: Herbicidal activity, spray above weed before planting, metalaxyl-treated stem cutting (Example 13); assay type: in vivo; settings: sprayed above weed, 3 cm stem cutting treated with metalaxyl or metalaxyl-M planted one week after treatment, four weeks after treatment
[14] = system: sugar cane; experiment: Phytotoxicity on sugar cane, spray above weed before planting, metalaxyl-treated stem cutting (Example 13)
Experimental: as §1
A soil is packed into a plastic pot, and seeds of Amaranthus retroflexus are seeded thereon. Thereafter, a pot is placed in a greenhouse, and the weed is grown.
A 30 cm to 40 cm stem cutting of sugar cane is placed on a wet soil, and germination is stimulated. The stem cutting from which a bud has grown to about 1 cm is selected, and the length of the stem cutting is adjusted to be 3 cm so that the stem cutting has one node. Metalaxyl or metalaxyl-M is adhered to the stem cutting.
as §3

[15] = Example 5, sprayed above weed three weeks after seeding, 3 cm stem cutting planted one week after treatment, four weeks after treatment
[16] = Example 7, sprayed above weed, 3 cm stem cutting treated with clothianidin, thiamethoxiam, imidacloprid, dinotefuran, nitenpyram, acetamiprid or thiacloprid planted one week after treatment, four weeks after treatment
[17] = Example 8, 3 cm stem cutting treated with kresoxim-methyl, azoxystrobin or another listed strobilurin fungicide, soil surface spray, four weeks after treatment
[18] = Example 9, sprayed above weed, 3 cm stem cutting treated with kresoxim-methyl, azoxystrobin or another listed strobilurin fungicide planted one week after treatment, four weeks after treatment
[19] = Example 12, 3 cm stem cutting treated with metalaxyl or metalaxyl-M, soil surface spray, four weeks after treatment
[20] = Example 13, sprayed above weed, 3 cm stem cutting treated with metalaxyl or metalaxyl-M planted one week after treatment, four weeks after treatment

## CCOc1cc(Oc2ccc(C(F)(F)F)cc2Cl)ccc1[N+](=O)[O-] [oxyfluorfen]
[1]
  herbicidal activity against Amaranthus retroflexus: the controlling effect on a weed can be confirmed
[2]; [15]
  phytotoxicity: significant phytotoxicity on sugar cane is not found
[3]
  herbicidal activity against Amaranthus retroflexus: the controlling effect on a weed can be confirmed
[4]; [16]
  phytotoxicity: significant phytotoxicity on sugar cane is not observed
[5]
  herbicidal activity against Amaranthus retroflexus: the controlling effect on a weed can be confirmed
[6]; [17]
  phytotoxicity: significant phytotoxicity on sugar cane is not observed
[7]
  herbicidal activity against Amaranthus retroflexus: the controlling effect on a weed can be confirmed
[8]; [18]
  phytotoxicity: significant phytotoxicity on sugar cane is not observed
[9]
  herbicidal activity against Amaranthus retroflexus: the control effect on a weed can be confirmed
[10]
  herbicidal activity against Amaranthus retroflexus: the controlling effect on a weed can be confirmed
[11]
  herbicidal activity against Amaranthus retroflexus: the controlling effect on a weed can be confirmed
[12]; [19]
  phytotoxicity: significant phytotoxicity on sugar cane is not observed
[13]
  herbicidal activity against Amaranthus retroflexus: the controlling effect on a weed can be confirmed
[14]; [20]
  phytotoxicity: significant phytotoxicity on sugar cane is not observed

## CC(C)Oc1cc(-n2nc(C(C)(C)C)oc2=O)c(Cl)cc1Cl [oxadiazon]
[1]
  herbicidal activity against Amaranthus retroflexus: the controlling effect on a weed can be confirmed
[2]; in vivo
  phytotoxicity: significant phytotoxicity on sugar cane is not found
[3]
  herbicidal activity against Amaranthus retroflexus: the controlling effect on a weed can be confirmed
[4]; in vivo
  phytotoxicity: significant phytotoxicity on sugar cane is not observed
[5]
  herbicidal activity against Amaranthus retroflexus: the controlling effect on a weed can be confirmed
[6]; in vivo
  phytotoxicity: significant phytotoxicity on sugar cane is not observed
[7]
  herbicidal activity against Amaranthus retroflexus: the controlling effect on a weed can be confirmed
[8]; in vivo
  phytotoxicity: significant phytotoxicity on sugar cane is not observed
[9]
  herbicidal activity against Amaranthus retroflexus: the control effect on a weed can be confirmed
[10]
  herbicidal activity against Amaranthus retroflexus: the controlling effect on a weed can be confirmed
[11]
  herbicidal activity against Amaranthus retroflexus: the controlling effect on a weed can be confirmed
[12]; in vivo
  phytotoxicity: significant phytotoxicity on sugar cane is not observed
[13]
  herbicidal activity against Amaranthus retroflexus: the controlling effect on a weed can be confirmed
[14]; in vivo
  phytotoxicity: significant phytotoxicity on sugar cane is not observed

## CC(C)N(C)S(=O)(=O)NC(=O)c1cc(-n2c(=O)cc(C(F)(F)F)n(C)c2=O)c(F)cc1Cl [Saflufenacil, saflufenacil]
[1]
  herbicidal activity against Amaranthus retroflexus: the controlling effect on a weed can be confirmed
[2]; [15]
  phytotoxicity: significant phytotoxicity on sugar cane is not found
[3]
  herbicidal activity against Amaranthus retroflexus: the controlling effect on a weed can be confirmed
[4]; [16]
  phytotoxicity: significant phytotoxicity on sugar cane is not observed
[5]
  herbicidal activity against Amaranthus retroflexus: the controlling effect on a weed can be confirmed
[6]; [17]
  phytotoxicity: significant phytotoxicity on sugar cane is not observed
[7]
  herbicidal activity against Amaranthus retroflexus: the controlling effect on a weed can be confirmed
[8]; [18]
  phytotoxicity: significant phytotoxicity on sugar cane is not observed
[9]
  herbicidal activity against Amaranthus retroflexus: the control effect on a weed can be confirmed
[10]
  herbicidal activity against Amaranthus retroflexus: the controlling effect on a weed can be confirmed
[11]
  herbicidal activity against Amaranthus retroflexus: the controlling effect on a weed can be confirmed
[12]; [19]
  phytotoxicity: significant phytotoxicity on sugar cane is not observed
[13]
  herbicidal activity against Amaranthus retroflexus: the controlling effect on a weed can be confirmed
[14]; [20]
  phytotoxicity: significant phytotoxicity on sugar cane is not observed

## C#CCN1C(=O)COc2cc(F)c(-n3c(=O)n(C)c(=S)n(C)c3=O)cc21 [compound of the formula (I)]
[1]
  herbicidal activity against Amaranthus retroflexus: the controlling effect on a weed can be confirmed
[2]; in vivo
  phytotoxicity: significant phytotoxicity on sugar cane is not found
[3]
  herbicidal activity against Amaranthus retroflexus: the controlling effect on a weed can be confirmed
[4]; in vivo
  phytotoxicity: significant phytotoxicity on sugar cane is not observed
[5]
  herbicidal activity against Amaranthus retroflexus: the controlling effect on a weed can be confirmed
[6]; [17]
  phytotoxicity: significant phytotoxicity on sugar cane is not observed
[7]
  herbicidal activity against Amaranthus retroflexus: the controlling effect on a weed can be confirmed
[8]; [18]
  phytotoxicity: significant phytotoxicity on sugar cane is not observed
[9]
  herbicidal activity against Amaranthus retroflexus: the control effect on a weed can be confirmed
[10]
  herbicidal activity against Amaranthus retroflexus: the controlling effect on a weed can be confirmed
[11]
  herbicidal activity against Amaranthus retroflexus: the controlling effect on a weed can be confirmed
[12]; in vivo
  phytotoxicity: significant phytotoxicity on sugar cane is not observed
[13]
  herbicidal activity against Amaranthus retroflexus: the controlling effect on a weed can be confirmed
[14]; in vivo
  phytotoxicity: significant phytotoxicity on sugar cane is not observed

— US20140329682A1, “METHOD OF CONTROLLING WEED IN A SUGAR CANE FIELD” (SUMITOMO CHEMICAL COMPANY, LIMITED, priority 2011, published 2014)
